Results from PubChem BioAssay (NCI).
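Assay format: 96-well plates, 48-hour exposure. Abbreviation: GI50, concentration required for 50% inhibition of growth. TGI: total growth inhibition.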

Legend:
Experiment in all cases: NCI-60 cell line screen, 48 h
MCF7 breast = system: MCF7 breast
SNB-75 CNS = system: SNB-75 CNS
NCI-H460 lung = system: NCI-H460 lung
PC-3 prostate = system: PC-3 prostate
A549 NSCLC = system: A549 NSCLC
DU-145 prostate = system: DU-145 prostate
TK-10 renal = system: TK-10 renal
MALME-3M melanoma = system: MALME-3M melanoma
MDA-MB-231 breast = system: MDA-MB-231 breast
NCI/ADR-RES ovarian = system: NCI/ADR-RES ovarian

| SMILES | GI50 (MCF7 breast) [µM] | GI50 (SNB-75 CNS) [µM] | TGI (SNB-75 CNS) [µM] | GI50 (NCI-H460 lung) [µM] | TGI (NCI-H460 lung) [µM] | GI50 (PC-3 prostate) [µM] | TGI (PC-3 prostate) [µM] | GI50 (A549 NSCLC) [µM] | TGI (A549 NSCLC) [µM] | GI50 (DU-145 prostate) [µM] | TGI (DU-145 prostate) [µM] | GI50 (TK-10 renal) [µM] | TGI (TK-10 renal) [µM] | GI50 (MALME-3M melanoma) [µM] | TGI (MALME-3M melanoma) [µM] | GI50 (MDA-MB-231 breast) [µM] | TGI (MDA-MB-231 breast) [µM] | GI50 (NCI/ADR-RES ovarian) [µM] | TGI (NCI/ADR-RES ovarian) [µM] | TGI (MCF7 breast) [µM] |
| --- | --- | --- | --- | --- | --- | --- | --- | --- | --- | --- | --- | --- | --- | --- | --- | --- | --- | --- | --- | --- |
| CN(C)C/C=C/C(=O)Nc1ccc(C(=O)Nc2cccc(Nc3ncc(Cl)c(-c4c[nH]c5ccccc45)n3)c2)cc1 | < 0.0116 | 0.0316 | 0.101 | 0.265 | 0.904 | 0.0315 | 0.191 | 0.0963 | > 100 | 0.0307 | 0.81 | 0.0602 | 1.34 | 0.0212 | 0.0873 | 0.0332 | 0.33 | 1.54 | > 100 | – |
| N#Cc1ncc(-c2ccc(C(F)(F)F)cc2)c(NC2CCCCCC2)n1 | 5.68 | > 100 | > 100 | 11.1 | > 100 | 5.67 | > 100 | 47.4 | > 100 | 44.8 | > 100 | 91 | > 100 | > 100 | > 100 | 6.56 | > 100 | 18.1 | > 100 | > 100 |
| COc1ccc(/C=C/C(=O)C(=O)/C=C/c2ccc(OC)c(OC)c2)cc1OC | 0.516 | 2.49 | 33.9 | 3.06 | 11.2 | 3.3 | > 100 | > 100 | > 100 | 3.08 | 14.2 | 3.83 | 25 | 5.77 | 78.8 | 2.25 | 6 | 4.2 | > 100 | 9.48 |
| Cc1[nH]c(N)nc(=S)c1CCCNc1ccccc1 | – | – | > 100 | – | > 100 | – | > 100 | – | > 100 | – | > 100 | – | > 100 | – | 99 | – | > 100 | – | > 100 | > 100 |
